Where a name gives a salt, the structure may show the parent alone. Read-outs that look alike come from different tables or passages of the source.
Columns and labels:
AMO-1 = experiment: Antiproliferation assay 7, AMO-1; format: cell-based; details: AMO-1 cells, CellTiter-Glo, read-out: Antiproli AMO-1 IC50 median
Procedure: (§1) Assessment of the Anti-Proliferative Effect of Compounds in Different Cell Lines
(§2) The impact of compounds on the proliferation of different cell lines was assessed using the CellTiter-Glo® Luminescent Cell Viability reagent from Promega (G7573).
(§3) In parallel, cells were plated in a reference (day 0) plate for time zero determination.
(§4) Rim wells were excluded. The cells were incubated for 72 hours in a humidified incubator at 37° C. The day 0 plate was measured by adding 30 μL/well of CTG solution (CellTiter-Glo® Luminescent Cell Viability reagent, Promega G7573) to time zero wells in the reference plate followed by a 10 minutes incubation and luminescence reading at 0.1 ms. using the PHERAstar FS microplate reader (BMG Labtech).
(§5) After 72 hours incubation, the treated plates were measured in the same way as the day 0 plate mentioned above.

SUDHL10 [1] = experiment: Induction of caspase-3/7 activity (Assay 4), SUDHL10; format: cell-based; details: SUDHL10 cells
Procedure: (§6) Induction of Caspase-3/7 Activity Upon Treatment of Cells with Selected Compounds
In contrast, MCL-1 inhibitors are expected to antagonize this effect leading to an increase in apoptosis, which can be determined by measuring the activity of caspase-3/7.
(§7) The activity of caspase-3/7 was determined in DLBCL (Diffuse large B-cell lymphoma) cell lines (SUDHL5 and SUDHL10) upon treatment with different compounds, using the Caspase-Glo®3/7 reagent from Promega (G8092).
(§8) Rim wells were excluded. The cells were incubated for 3 hours in a humidified incubator at 37° C.
(§9) For the evaluation of the results, the background measured with “medium-only” was subtracted from all other values.

HMC-1-8 = experiment: Antiproliferation assay 7, HMC-1-8; format: cell-based; details: HMC-1-8 cells, CellTiter-Glo, read-out: Antiproli HMC-1-8 IC50 median
Procedure: as §1, §2, §3, §4, §5

SUDHL5 [2] = experiment: Induction of caspase-3/7 activity (Assay 4), SUDHL5; format: cell-based; details: SUDHL5 cells
Procedure: as §6
The BH3-domain of MCL-1 sequesters pro-apoptotic proteins, thereby inhibiting apoptosis. In contrast, MCL-1 inhibitors are expected to antagonize this effect leading to an increase in apoptosis, which can be determined by measuring the activity of caspase-3/7.
as §7, §8, §9

SUDHL10 [3] = experiment: Induction of cytotoxicity (Assay 6), SUDHL10
SUDHL5 [4] = experiment: Antiproliferation assay 7, SUDHL5; format: cell-based; details: SUDHL5 cells, CellTiter-Glo, read-out: Antiproli SUDHL5 IC50 (median)
Procedure: as §1, §2, §3, §4, §5

SUDHL5 [5] = experiment: Induction of cytotoxicity (Assay 6), SUDHL5
Procedure: Assay 6 Induction of Cytotoxicity Upon Treatment of Cells with Selected Compounds
Therefore, cytotoxicity assays were run in parallel in SUDHL5 and SUDHL10 cells.
The different cell lines were plated in culture medium (RPMI 1640 [GIBCO #22400-089]supplemented with 10% Fetal Bovine Serum) at a density of 3,300 cells in 30 μL/well in a sterile, solid black, flat bottom, polystyrene, TC-treated 384-well microplate (Corning #3571) using Multidrop Combi Reagent Dispenser. As a control, medium without cells was also added to the plate. Cells were incubated in a humidified incubator at 37° C. overnight. […] Rim wells were excluded. The cells were incubated for 5 hours in a humidified incubator at 37° C. After this incubation, 30 μL of CellTiter-Glo® Luminescent Cell Viability reagent (Promega, G7573) was added to each well using the Multidrop Combi Reagent Dispenser, followed by 15 minutes incubation on a shaker at room temperature. Finally, luminescence was read at 0.1 ms, with a gain of 3000 using the PHERAstar FS microplate reader (BMG Labtech).

[6] = 3 hours, Caspase-Glo 3/7, read-out: Caspase SUDHL10 EC50 (median)
[7] = 3 hours, Caspase-Glo 3/7, read-out: Caspase SUDHL5 EC50 (median)
[8] = read-out: Cytotox SUDHL10 IC50 (median), SUDHL10 cells, 5 hours, CellTiter-Glo
[9] = read-out: Cytotox SUDHL5 IC50 (median), SUDHL5 cells, 5 hours, CellTiter-Glo
[10] = Homo sapiens, SU-DHL-5, 3 h, Caspase-Glo 3/7, read-out: Caspase SUDHL5 EC50 (median)
[11] = Homo sapiens, SU-DHL-5, 5 h, read-out: Cytotox SUDHL5 IC50 (median), SUDHL5 cells, 5 hours, CellTiter-Glo
[12] = Homo sapiens, SU-DHL10, 3 h, Caspase-Glo 3/7, read-out: Caspase SUDHL10 EC50 (median)
[13] = Homo sapiens, SU-DHL10, 5 h, read-out: Cytotox SUDHL10 IC50 (median), SUDHL10 cells, 5 hours, CellTiter-Glo

SMILES | IC50 (AMO-1; Homo sapiens, AMO1, 72 h) [µM] | EC50 (SUDHL10 [1]; [6]) [µM] | IC50 (HMC-1-8; 72 h) [µM] | EC50 (SUDHL5 [2]; [7]) [µM] | IC50 (SUDHL10 [3]; [8]) [µM] | IC50 (SUDHL5 [4]; 72 hours) [µM] | IC50 (SUDHL5 [5]; [9]) [µM] | IC50 (AMO-1; 72 hours) [µM] | IC50 (HMC-1-8; 72 hours) [µM] | EC50 (SUDHL5 [2]; [10]) [µM] | IC50 (SUDHL5 [4]; Homo sapiens, SU-DHL-5, 72 h) [µM] | IC50 (SUDHL5 [5]; [11]) [µM] | EC50 (SUDHL10 [1]; [12]) [µM] | IC50 (SUDHL10 [3]; [13]) [µM]
CCc1c2c(nn1C)N(CCC1CCOCC1)CCCCCn1c(C(=O)O)c(CCCOc3cccc4cc(F)ccc34)c3ccc(Cl)c-2c31 (single isomer, unassigned; enantiomer 1) [Example 81, 4-chloro-3-ethyl-7-{3-[(6-fluoronaphthalen-1-yl)oxy]propyl}-2-methyl-15-[2-(oxan-4-yl)ethyl]-10,11,12,13,14,15-hexahydro-2H-pyrazolo[4′,3′:4,5][1,6]diazacycloundecino[3,2,1-hi]indole-8-carboxylic acid N-ethylethanamine Salt—Enantiomer 1] | 0.12 | 0.17 | 1.9 | 0.22 | 0.23 | 0.32 | 0.29 | – | – | – | – | – | – | –
Cc1c2c(nn1C)OCCCCCn1c(C(=O)O)c(CCCOc3cccc4cc(F)ccc34)c3ccc(Cl)c-2c31 (racemic) [Example 83, (rac)-4-chloro-7-{3-[(6-fluoronaphthalen-1-yl)oxy]propyl}-2,3-dimethyl-11,12,13,14-tetrahydro-2H,10H-pyrazolo[3′,4′:2,3][1,6]oxazacycloundecino[4,5,6-hi]indole-8-carboxylic Acid] | – | 0.98 | – | 0.61 | 1.1 | 0.38 | 0.66 | 0.73 | 7.9 | – | – | – | – | –
Cc1c2c(nn1C)CN(CC(F)(F)F)CCCCn1c(C(=O)O)c(CCCOc3cccc4cc(F)ccc34)c3ccc(Cl)c-2c31 (single isomer, unassigned; enantiomer 2) [Example 60, 4-chloro-7-{3-[(6-fluoronaphthalen-1-yl)oxy]propyl}-2,3-dimethyl-14-(2,2,2-trifluoroethyl)-10,11,12,13,14,15-hexahydro-2H-pyrazolo[3′,4′:8,9][1,6]diazacycloundecino[10,11,1-hi]indole-8-carboxylic Acid—Enantiomer 2] | – | 27 | – | 9 | 26 | 20 | 12 | 25.5 | > 30 | – | – | – | – | –
Cc1c2c(nn1C)COCC1CCC1Cn1c(C(=O)O)c(CCCOc3cccc4ccccc34)c3ccc(Cl)c-2c31 (single isomer, unassigned; stereoisomer 1) [Example 63] | – | 3.1 | 7.85 | – | 3.3 | – | – | 2.56 | – | 1.4 | 2.6 | 1.5 | – | –
Cc1c2c(nn1C)COCC(F)(F)CCn1c(C(=O)O)c(CCCOc3cccc4ccccc34)c3ccc(Cl)c-2c31 (single isomer, unassigned; enantiomer 1) [Example 56, 4-chloro-12,12-difluoro-2,3-dimethyl-7-{3-[(naphthalen-1-yl)oxy]propyl}-2,10,11,12,13,15-hexahydropyrazolo[4′,3′:9,10][1,6]oxazacycloundecino[8,7,6-hi]indole-8-carboxylic acid-N-ethylethanamine Salt—Enantiomer 1] | – | 1.8 | 8.27 | 0.69 | 1.6 | 1.1 | 0.59 | 1.77 | – | – | – | – | – | –
Cc1c2c(nn1C)CN(CC(F)(F)F)CCCCn1c(C(=O)O)c(CCCOc3cccc4cc(F)ccc34)c3ccc(Cl)c-2c31 (racemic) [Example 58, (rac)-4-chloro-7-{3-[(6-fluoronaphthalen-1-yl)oxy]propyl}-2,3-dimethyl-14-(2,2,2-trifluoroethyl)-10,11,12,13,14,15-hexahydro-2H-pyrazolo[3′,4′:8,9][1,6]diazacycloundecino[10,11,1-hi]indole-8-carboxylic Acid] | 0.683 | – | 1.72 | – | – | – | – | – | – | 0.33 | 0.25 | 0.34 | 0.44 | 0.53
CCc1c2c(nn1C)CCCCCCn1c(C(=O)O)c(CCCOc3cccc4ccccc34)c3ccc(Cl)c-2c31 (single isomer, unassigned; enantiomer 2) [Example 53, (−) 4-chloro-3-ethyl-2-methyl-7-{3-[(naphthalen-1-yl)oxy]propyl}-10,11,12,13,14,15-hexahydro-2H-pyrazolo[4′,3′:4,5]azacycloundecino[3,2,1-hi]indole-8-carboxylic acid-N-ethylethanamine Salt—Enantiomer 2] | – | – | – | 3.5 | – | – | 2.5 | 11.2 | 16.8 | – | – | – | – | –
CCc1c2c(nn1C)CCCCCCn1c(C(=O)O)c(CCCOc3cccc4ccccc34)c3ccc(Cl)c-2c31 (single isomer, unassigned; enantiomer 1) [Example 52, (+)-4-chloro-3-ethyl-2-methyl-7-{3-[(naphthalen-1-yl)oxy]propyl}-10,11,12,13,14,15-hexahydro-2H-pyrazolo[4′,3′:4,5]azacycloundecino[3,2,1-hi]indole-8-carboxylic acid-N-ethylethanamine Salt—Enantiomer 1] | – | – | – | 0.37 | – | – | 0.32 | 1.44 | 5.25 | – | – | – | – | –
Cc1c2c(nn1C)OCCCCCn1c(C(=O)O)c(CCCOc3cccc4cc(F)ccc34)c3ccc(Cl)c-2c31 (single isomer, unassigned; enantiomer 2) [Example 85, 4-chloro-7-{3-[(6-fluoronaphthalen-1-yl)oxy]propyl}-2,3-dimethyl-11,12,13,14-tetrahydro-2H,10H-pyrazolo[3′,4′:2,3][1,6]oxazacycloundecino[4,5,6-hi]indole-8-carboxylic Acid—Enantiomer 2] | – | 25 | – | 9.7 | 25 | 13 | 17 | 6.1 | > 30 | – | – | – | – | –
Cc1c2c(nn1C)CN(CC(F)(F)F)CCCCn1c(C(=O)O)c(CCCOc3cccc4cc(F)ccc34)c3ccc(Cl)c-2c31 (single isomer, unassigned; enantiomer 1) [Example 59, 4-chloro-7-{3-[(6-fluoronaphthalen-1-yl)oxy]propyl}-2,3-dimethyl-14-(2,2,2-trifluoroethyl)-10,11,12,13,14,15-hexahydro-2H-pyrazolo[3′,4′:8,9][1,6]diazacycloundecino[10,11,1-hi]indole-8-carboxylic Acid—Enantiomer 1] | – | 0.49 | – | 0.24 | 0.55 | 0.34 | 0.31 | 0.216 | 1.12 | – | – | – | – | –
CCc1c2c(nn1C)CCCCCCn1c(C(=O)O)c(CCCOc3cccc4cc(F)ccc34)c3ccc(Cl)c-2c31 (racemic) [Example 54, (rac)-4-chloro-3-ethyl-7-{3-[(6-fluoronaphthalen-1-yl)oxy]propyl}-2-methyl-10,11,12,13,14,15-hexahydro-2H-pyrazolo[4′,3′:4,5]azacycloundecino[3,2,1-hi]indole-8-carboxylic Acid] | 1.35 | – | 2.21 | – | – | – | – | – | – | 0.6 | 0.43 | 0.67 | 0.52 | 0.74
Cc1c2c(nn1C)COCC(F)(F)CCn1c(C(=O)O)c(CCCOc3cccc4ccccc34)c3ccc(Cl)c-2c31 (single isomer, unassigned; enantiomer 2) [Example 57, 4-chloro-12,12-difluoro-2,3-dimethyl-7-{3-[(naphthalen-1-yl)oxy]propyl}-2,10,11,12,13,15-hexahydropyrazolo[4′,3′:9,10][1,6]oxazacycloundecino[8,7,6-hi]indole-8-carboxylic acid-N-ethylethanamine Salt—Enantiomer 2] | – | 13 | – | 7.6 | 10 | 3.9 | 6.9 | 11.8 | 8.68 | – | – | – | – | –

— US11447504B2, “Macrocyclic chlorine substituted indole derivatives” (Bayer Aktiengesellschaft, priority 2017, dated 2022)
